Ends that are not written are not given here. glycidyl methacrylate‑derivatized dextran = not defined here

Experiment [1] deals with TNF-α stimulated, ICAM-expressing BECs. Nature of the experiment: inflammatory cell adhesion assay: U937 monocyte adhesion to TNF-α stimulated bovine endothelial cell monolayers. It is filed as cell-based. The conditions noted are these: U937 cells on TNF-α stimulated. The procedure: This experiment illustrates the activity of the bioconjugate, whose synthesis was described above, in the inflammatory cell adhesion assay. Bovine endothelial cell (BEC) monolayers were established in 24-well culture dishes. At 24 h prior to the assay, normal medium (Minimal Eagle's Medium with 10% fetal bovine serum, 1% ABAM and 1% L-glutamine) (Gibco, CA, USA) was replaced with medium containing tumor necrosis factor α (TNF-α, 10 ng/ml). Following the 24 h incubation period, each sample well received a medium change.
Treated sample groups received medium containing 6% dextran bioconjugate or 6% bioconjugate. […] Two other control treatments were given: a medium change with no dextran or peptide was given to a sample group pretreated with TNF-α, and a positive control that was not pretreated with TNF-α. After a 30-minute incubation period, the medium in all wells was replaced with medium containing the human monocyte cell line U937 (1×10^5/ml) (ATCC, Manassas, Va.). All samples were incubated for another 30 minutes, then washed three times with PBS to remove non-adherent cells. The average number of adherent cells per 100× microscopic field was determined for each sample group.

For the next experiment, the system named is inflammatory HUVECs. Kind of experiment: in vitro ICAM-1-mediated leukocyte cell adhesion assay: U937 adhesion to TNF-α treated HUVEC monolayers. It is filed as cell-based, human. The conditions noted are these: TNF-α (10 ng/ml, 24 h) treated HUVECs; medium containing 6% dextran bioconjugate, 30 min; n=4 wells. The procedure: To assess the effect of these peptide-dextran bioconjugates on inflammatory cell adhesion, the following in vitro ICAM-1-mediated leukocyte cell adhesion assay was performed. HUVEC monolayers were established in 24-well culture dishes. At 24 h prior to the assay, normal culture media were replaced with medium containing TNF-α (10 ng/ml). Following the 24 h incubation period, each sample well received a medium change. Treated sample groups received medium containing 6% dextran bioconjugate (dextran conjugated to the A domain peptide CNAFKILVVITDGEK). Untreated control samples received normal medium. Negative sham control samples received medium containing dextran conjugate with a scrambled A domain sequence (KCENGADFTKIIVLV). All samples were then incubated for 30 min prior to the adhesion assay. Medium was removed from all wells following the 30 min incubation and replaced with medium containing U937 monocytic cells (1×10^5/ml). All samples were then incubated for another 30 min. After this incubation period, samples were washed three times with PBS to remove non-adherent monocytes. The samples were then fixed, and an average number of adherent monocytes per 100× microscopic field was determined for each sample group. Statistical comparisons between sample groups (n=4 replicate wells per group) were performed using a student's t-test.

Experiment [2] addresses T1, ICAM-1 expressed on TNF-alpha stimulated bovine endothelial cells (BEC) (bovine, UniProt Q95132 28-535).
T1 sequence (looked up): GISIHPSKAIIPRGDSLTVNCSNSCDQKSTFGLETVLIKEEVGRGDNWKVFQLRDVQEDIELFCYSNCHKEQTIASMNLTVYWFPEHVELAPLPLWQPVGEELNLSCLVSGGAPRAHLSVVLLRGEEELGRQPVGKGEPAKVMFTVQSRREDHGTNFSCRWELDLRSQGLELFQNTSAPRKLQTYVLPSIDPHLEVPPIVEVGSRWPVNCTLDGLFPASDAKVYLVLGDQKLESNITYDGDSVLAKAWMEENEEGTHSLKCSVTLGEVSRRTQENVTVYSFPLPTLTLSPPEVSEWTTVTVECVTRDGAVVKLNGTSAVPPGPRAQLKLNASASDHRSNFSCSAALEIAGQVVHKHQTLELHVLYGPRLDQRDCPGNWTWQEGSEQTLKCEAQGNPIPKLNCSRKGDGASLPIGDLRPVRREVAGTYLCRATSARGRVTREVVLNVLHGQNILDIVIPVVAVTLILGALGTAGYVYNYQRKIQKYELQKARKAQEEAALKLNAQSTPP
Kind of experiment: cell-based or functional assay.

As to “active peptide conjugate: methacroylated dextran (about 70 kD) coupled to synthetic peptide CNAFKILVVITDGEK, based on the ICAM-1-binding portion of integrin αmβ2 (CD11b/CD18) (also: coupled to methacroylated dextran (about 70 kD), site not given here)”, the “effect on monocyte adhesion (in words)” value in experiment [1] (listed as active dextran bioconjugate) is on record as “prevented monocyte adhesion to the extent observed in non-stimulated BECS”; in experiment [1] (listed as bioconjugate), “reducing monocyte adhesion to levels observed in control, non-stimulated cells”. Also, in the experiment on inflammatory HUVECs, the “U937 cell adhesion reduced by” value is listed as 87.7%.

As for “inactive peptide conjugate: dextran bioconjugate containing an inactive scrambled sequence of the A-domain peptide, CTVDLKFGIKNIEAV; sham control (also: conjugated to dextran, attachment site not given here) [reference compound]”, the “effect on monocyte adhesion (in words)” value in experiment [1] is recorded as “inhibited cell adhesion poorly”.

“CTVDLKFGIKNIEAV [inactive peptide, reference compound]”: the “effect on monocyte adhesion (in words)” value in experiment [1] is reported as “comparable to no treatment after the TNF-α activation”.

B1: dextran bioconjugate containing the inactive scrambled A-domain peptide CTVDLKFGIKNIEAV (peptide)
peptide: CTVDLKFGIKNIEAV
modifications: not fully specified (residue 1); also: Cys sulfhydryl coupled to glycidyl methacrylate-derivatized dextran (about 70 kD)
Regarding B1, the “relative monocyte adherence (U937 cells on TNF-alpha activated BEC; negative control = 100%)” value in experiment [2] was 55.6%.

B2: dextran/peptide bioconjugate: synthetic A domain peptide CNAFKILVVITDGEK coupled to methacroylated (activated) dextran (peptide)
peptide: C(glycidyl methacrylate‑derivatized dextran)NAFKILVVITDGEK
modifications: reading uncertain; also: polyvalent conjugate on dextran, peptides per dextran not given here
As for B2, the “relative monocyte adherence (U937 cells on TNF-alpha activated BEC; negative control = 100%)” value in experiment [2] amounted to 3.34%.

B3: synthetic peptide CNAFKILVVITDGEK, unconjugated (peptide)
peptide: CNAFKILVVITDGEK
On to B3, for which, in experiment [2], the “relative monocyte adherence (U937 cells on TNF-alpha activated BEC; negative control = 100%)” value turned out to be 56.3%.

B4: inactive scrambled peptide CTVDLKFGIKNIEAV, unconjugated (peptide)
peptide: CTVDLKFGIKNIEAV
As for B4, the “relative monocyte adherence (U937 cells on TNF-alpha activated BEC; negative control = 100%)” value in experiment [2] turned out to be 95.7%.

(Values after patent US20040127416A1, “Therapeutic bioconjugates” (priority 2002, published 2004).)
